{"source": "patent US11395867B2", "about": "“Degradable removable implant for the sustained release of an active compound” (Janssen Sciences Ireland Unlimited Company, priority 2009, dated 2022)", "key": {"[1]": {"experiment": "In vivo testing of laser drilled melt extruded tube containing two sets of microparticles formulated with F108, plasma concentrations", "design": "species or system Sprague-Dawley rats", "details": "rat, subcutaneous laser drilled extruded tube implant, TMC278 109 mg/kg, compound 1 78 mg/kg, individual animals 1-4", "method": "The laser drilled melt extruded tube was prepared as described above in example 10. The microparticles were prepared by the spinning disc method using a 3% (w/w) polymer/acetone solution. Two sets of microparticles were prepared. The target composition of one set was 70% (w/w) TMC278, 20% (w/w) PLGA 50/50 (Lakeshore Biomaterials IVHFIP=0.79 dl/g), and 10% (w/w) F108 (BASF). The target composition of the other set of microparticles was 70% (w/w) compound 1, 20% (w/w) PLGA 50/50 (Lakeshore Biomaterials IVHFIP=0.18 dl/g), and 10% (w/w) F108. The F108 was added to the polymer solution.\nThe size range of the microparticles was determined by randomly selecting a sample of microparticles and placing them on the stage of an optical microscope and using a ruler to measure the various sizes of the microparticles in the randomly selected sample. The size range of the TMC278 and compound 1 microparticles was 10-100 microns and 20-100 microns, respectively. Microparticles were mixed as described in example 9. Approximately 133 mg of the microparticle mixture was introduced into tubes using a spatula to transfer the contents.\nThe prepared tubes were implanted into the subcutaneous space on the back of four male Sprague-Dawley rats weighing between 250-350 grams. The dose of TMC278 and compound 1 was 109 mg/kg and 78 mg/kg, respectively. The tail vein was sampled at pre-determined time points. Blood samples were immediately centrifuged to extract the plasma, plasma was analyzed for compound 1 and TMC278 by LC/MS/MS. The lower limit of quantitation for TMC278 and compound 1 was 0.4 ng/ml and 2 ng/ml, respectively."}, "[2]": {"experiment": "In vivo testing of electrostatically spun tube containing two sets of microparticles, plasma concentrations", "design": "species or system Sprague-Dawley rats", "details": "rat, subcutaneous electrospun tube implant, TMC278 139 mg/kg, compound 1 64 mg/kg, individual animals 1-4", "method": "Tubes were electrostatically spun from a 100 mg/ml polydioxanone (IVHFIP=1.99 dl/g) hexafluoroisopropanol solution. A 4 mm mandrel was used to provide a consistent inner diameter of 4 mm. The rotational speed of the mandrel was 400 rpm, the charging voltage range was 20/−10 kV, and the pump flow rate was 10 ml/hour. The resulting wall thickness was 500 microns. Fiber diameters were 1-2 microns and the average pore size formed from the network of fibers was 20 microns as determined by Scanning Electron Microscopy.\nThe microparticles were prepared by the spinning disc method using a polymer/acetone solution with a concentration ranging from 3-4% (w/w). Two sets of microparticles were prepared. The target composition of one set was 70% (w/w) TMC278 and 30% (w/w) PLGA 50/50 (Lakeshore Biomaterials IVHFIP=0.79 dl/g). The target composition of the other set of microparticles was 70% (w/w) of compound 1 (=compound 14 of WO01/25240) and 30% (w/w) PLGA 50/50 (Lakeshore Biomaterials IVHFIP=0.18 dl/g). This compound 1 has the following structure and will be referred to hereinafter as compound 1:\nApproximately 133 mg of the microparticle mixture was introduced into the electrostatically prepared tubes using a spatula.\n(§1) The prepared tubes were implanted into the subcutaneous space on the back of four male Sprague-Dawley rats weighing between 250-350 grams. The dose of TMC278 was 139 mg/kg and the dose of compound 1 was 64 mg/kg. The tail vein was sampled at pre-determined time points. Blood samples were immediately centrifuged to extract the plasma, plasma was analyzed for compound 1 and TMC278 by LC/MS/MS. The lower limit of quantitation was 0.4 ng/ml and 2 ng/ml for TMC278 and compound 1, respectively."}, "[3]": {"experiment": "Solubility experiments of TMC278 in water", "type": "physicochemical", "description": "The solubility of TMC278 dramatically increases at pH=2. […] The use of an acidic binder gel that can effectively lower pH, can increase the rate of elution of TMC278 from the polymer matrix. Increasing the concentration of the acidic polymer in the gel can depress the pH even further (Table 1)."}, "[4]": {"experiment": "In vivo testing of laser drilled melt extruded tube containing two sets of microparticles, plasma concentrations", "details": "rat, subcutaneous laser drilled extruded tube implant, TMC278 139 mg/kg, compound 1 64 mg/kg, individual animals 1-4", "method": "Tubes with inner diameter of 4.5 mm were extruded from polydioxanone (IVHFIP=1.99 dl/g) using a ¾ inch single screw extruder fitted with a tube die. The dimensions of the tube were monitored using an in-line laser diameter measuring system and maintained using a puller. Following the extrusion the tubes were laser drilled. In preparation for the laser drilling a mask design was prepared that located the holes 260 microns apart from one another. Scanning electron microscopy was used to size the inner and outer diameter of the holes. […] The microparticles were prepared as described in Example 9. Approximately 133 mg of the microparticle mixture was introduced into the tubes.\nas §1, with “plasma, and” for “plasma,”, “quantitation for TMC278 and compound 1” for “quantitation”, “2.0 ng/ml,” for “2 ng/ml for TMC278 and compound 1,”"}, "[5]": {"details": "male, Sprague-Dawley, plasma, subcutaneous, 7 day"}, "[6]": {"details": "male, Sprague-Dawley, plasma, subcutaneous, 14 day"}}, "note": "Where “and” joins values, the source holds several entries; their conditions need not be identical. Equal values may be shown once.", "data": [{"smiles": "Cc1cc(/C=C/C#N)cc(C)c1Nc1ccnc(Nc2ccc(C#N)cc2)n1", "note": "[TMC278, rilpivirine]", "values": [{"measurement": "plasma concentration", "setting": "[1]; 3 hour", "value": "2.12 ng/mL and 1.40 ng/mL and 2.42 ng/mL and 1.02 ng/mL"}, {"measurement": "plasma concentration", "setting": "[1]; 1 day", "value": "0.797 ng/mL and 0.522 ng/mL and 0.939 ng/mL and <0.4 ng/mL"}, {"measurement": "plasma concentration", "setting": "[1]; 3 day", "value": "<0.4 ng/ml (2×) and 0.521 ng/ml"}, {"measurement": "plasma concentration", "setting": "[1]; 7 day", "value": "<0.4 ng/ml (2×) and 0.405 ng/ml"}, {"measurement": "plasma concentration", "setting": "[1]; 14 day", "value": "<0.4 ng/mL and 0.478 ng/mL and 0.664 ng/mL"}, {"measurement": "plasma concentration", "setting": "[1]; 28 day", "value": "2.13 ng/mL and 0.539 ng/mL and 1.13 ng/mL and 2.19 ng/mL"}, {"measurement": "plasma concentration", "setting": "[1]; 35 day", "value": "2.17 ng/mL and 0.744 ng/mL and 1.48 ng/mL and 2.48 ng/mL"}, {"measurement": "concentration at 3 day", "setting": "[1]; male, Sprague-Dawley, plasma, 3 day", "value": 0.485, "unit": "ng/mL"}, {"measurement": "concentration at 7 day", "setting": "[1]; male, Sprague-Dawley, plasma, 7 day", "value": "< 0.4", "unit": "ng/mL"}, {"measurement": "concentration at 14 day", "setting": "[1]; male, Sprague-Dawley, plasma, 14 day", "value": 0.6, "unit": "ng/mL"}, {"measurement": "plasma concentration", "setting": "[2]; 3 hour", "value": "0.562 ng/mL and 0.462 ng/mL and 0.576 ng/mL"}, {"measurement": "plasma concentration", "setting": "[2]; 1 day", "value": "0.441 ng/mL and <0.4 ng/mL and 0.575 ng/mL"}, {"measurement": "plasma concentration", "setting": "[2]; 3 day", "value": "0.518 ng/mL and <0.4 ng/mL and 0.549 ng/mL"}, {"measurement": "plasma concentration", "setting": "[2]; 7 day", "value": "0.645 ng/ml and <0.4 ng/ml (2×)"}, {"measurement": "plasma concentration", "setting": "[2]; 14 day", "value": "<0.4 ng/ml (2×) and 0.424 ng/ml"}, {"measurement": "plasma concentration", "setting": "[2]; 28 day", "value": "<0.4 ng/ml (2×) and 0.475 ng/ml"}, {"measurement": "plasma concentration", "setting": "[2]; 35 day", "value": "0.527 ng/mL and 0.769 ng/mL and 0.400 ng/mL"}, {"measurement": "concentration at 3 h", "setting": "[2]; male, Sprague-Dawley, plasma, subcutaneous, 3 hour", "value": 0.505, "unit": "ng/mL"}, {"measurement": "concentration at 1 day", "setting": "[2]; male, Sprague-Dawley, plasma, subcutaneous, 1 day", "value": "< 0.4", "unit": "ng/mL"}, {"measurement": "concentration at 3 day", "setting": "[2]; male, Sprague-Dawley, plasma, subcutaneous, 3 day", "value": "< 0.4", "unit": "ng/mL"}, {"measurement": "concentration at 7 day", "setting": "[2]; [5]", "value": 0.421, "unit": "ng/mL"}, {"measurement": "concentration at 14 day", "setting": "[2]; [6]", "value": "< 0.4", "unit": "ng/mL"}, {"measurement": "concentration at 28 day", "setting": "[2]; male, Sprague-Dawley, plasma, subcutaneous, 28 day", "value": "< 0.4", "unit": "ng/mL"}, {"measurement": "concentration at 35 day", "setting": "[2]; male, Sprague-Dawley, plasma, subcutaneous, 35 day", "value": "< 0.4", "unit": "ng/mL"}, {"measurement": "solubility in water at pH of 2 relative to pH of 7", "setting": "[3]; pH 2 vs pH 7", "value": 950, "unit": "times"}, {"measurement": "solubility in water", "setting": "[3]; water", "value": "extreme insolubility"}, {"measurement": "plasma concentration", "setting": "[4]; 3 hour", "value": "0.551 ng/mL and 1.42 ng/mL and 2.51 ng/mL and 1.61 ng/mL"}, {"measurement": "plasma concentration", "setting": "[4]; 1 day", "value": "<0.4 ng/ml (2×) and 0.432 ng/ml and 1.22 ng/ml"}, {"measurement": "plasma concentration", "setting": "[4]; 3 day", "value": "<0.4 ng/ml (3×) and 1.14 ng/ml"}, {"measurement": "plasma concentration", "setting": "[4]; 7 day", "value": "0.4 ng/mL and 0.695 ng/mL and <0.4 ng/mL"}, {"measurement": "plasma concentration", "setting": "[4]; 14 day", "value": "<0.4 ng/mL and 0.425 ng/mL and 0.456 ng/mL"}, {"measurement": "plasma concentration", "setting": "[4]; 28 day", "value": "<0.4 ng/mL and 0.451 ng/mL and 1.36 ng/mL and 0.773 ng/mL"}, {"measurement": "plasma concentration", "setting": "[4]; 35 day", "value": "<0.4 ng/mL and 0.403 ng/mL and 2.11 ng/mL and 0.881 ng/mL"}, {"measurement": "concentration at 7 day", "setting": "[4]; [5]", "value": "< 0.4", "unit": "ng/mL"}, {"measurement": "concentration at 14 day", "setting": "[4]; [6]", "value": "< 0.4", "unit": "ng/mL"}]}]}
